For 22 compounds, IC50 results are on record in patent publication US20250064789A1, “KETOAMIDE DERIVATIVES AND PHARMACEUTICAL USES THEREOF” (priority 2022, published 2025).

The IC50 is the concentration at which inhibition is half-maximal.

The target of the first assay is recombinant SARS-CoV-2 M^pro (Severe acute respiratory syndrome coronavirus 2 (2019-nCoV) (SARS-CoV-2), UniProt P0DTD1). The experiment in a line: Inhibition of SARS-CoV-2 M^pro enzyme activity (fluorescent substrate assay). The class given is biochemical. The note with it: inhibition of SARS-CoV-2 M^pro enzyme activity; values given in μM; read-out: IC50.
For `COC[C@@H](NC(=O)C1CCCC(F)(F)C1)C(=O)N[C@H](Cc1ccccc1)C(=O)C(=O)NCc1ncon1` (stereo partly shown) [Compound 562], the IC50 was greater than 2.5 µM.
The same measure, in the same setting: the figure for `CN1CCC(C(=O)NC2(C(=O)N[C@H](Cc3ccccc3)C(=O)C(=O)NCc3ccccn3)CCC2)CC1=O` (stereo partly shown) [Compound 189] is greater than 2.5 µM; for `Cc1cccc(CNC(=O)C(=O)[C@@H](Cc2ccccc2)NC(=O)[C@@H](C)OCc2ccccc2)n1` [Compound 28] it is greater than 5 µM; for `O=C(NCc1cnc(Cl)s1)C(=O)[C@@H](Cc1ccccc1)NC(=O)c1ccccc1` [Compound 463] it is 95.2 ± 5.99 µM.

The same assay, now with this note: inhibition of SARS-CoV-2 M^pro enzyme activity; values in nM; read-out: IC50.
As to `C[C@@H](NC(=O)c1cnccn1)C(=O)N[C@H](Cc1ccccc1)C(=O)C(=O)NCc1ccccn1` [Compound 106], the IC50 was 0.161 ± 0.0041 µM.
With `O=C(NCc1cscn1)C(=O)[C@@H](Cc1ccccc1)NC(=O)[C@H]1COCCN1C(=O)C1CCC(F)(F)CC1` [Compound 438], the IC50 turned out to be 0.0234 ± 0.0018 µM.
Still for that read-out and setting: the value for `N#Cc1cc(F)cc(C(=O)NCC(=O)N[C@H](Cc2ccccc2)C(=O)C(=O)NCc2ccccn2)c1` [Compound 442] was 0.0206 ± 0.001 µM; that for `O=C(NCc1nccs1)C(=O)[C@@H](Cc1ccccc1)NC(=O)[C@H]1CC(F)(F)CN1C(=O)[C@@H]1C[C@@H]2[C@H](C1)C2(F)F` [Compound 406] was 0.0527 ± 0.0011 µM; that for `O=C(CNC(=O)c1ccc(F)c(Cl)c1)N[C@H](Cc1ccccc1)C(=O)C(=O)NCc1ccccn1` [Compound 441] was 0.0185 ± 0.0003 µM.
The same measure, in the same setting: the figure for `C[C@@H](NC(=O)C1Cc2ccccc2O1)C(=O)N[C@H](Cc1ccccc1)C(=O)C(=O)NCc1ccccn1` (stereo partly shown) [Compound 102] is 0.0266 ± 0.0004 µM; for `C[C@@H](OCc1ccc(Cl)cc1)C(=O)N[C@H](Cc1ccccc1)C(=O)C(=O)NCc1ccccn1` [Compound 13] it is 0.0143 ± 0.0004 µM; for `O=C(N[C@@H](C1CC1)C(F)(F)F)NC1(C(=O)N[C@H](Cc2ccccc2)C(=O)C(=O)NCc2ccccn2)CCC1` [Compound 306] it is 0.0193 ± 0.001 µM.
The same measure, in the same setting: the value for `C[C@@H](NC(=O)CC1CCC(F)(F)CC1)C(=O)N[C@H](Cc1ccccc1)C(=O)C(=O)NCc1ccccn1` [Compound 111] was 0.0253 ± 0.0002 µM; that for `COc1ccc(CC(=O)N[C@H](C)C(=O)N[C@H](Cc2ccccc2)C(=O)C(=O)NCc2ccccn2)cc1` [Compound 77] was 0.0241 µM.
Take `C[C@@H](NC(=O)CC1CCS(=O)(=O)CC1)C(=O)N[C@H](Cc1ccccc1)C(=O)C(=O)NCc1ccccn1` [Compound 131]: the IC50 amounted to 0.0368 ± 0.0001 µM.
With `C[C@@H](OCc1c(F)cccc1F)C(=O)N[C@H](Cc1ccccc1)C(=O)C(=O)NCc1ccccn1` [Compound 3], the half-maximal inhibitory concentration (IC50) amounted to 0.411 ± 0.0282 µM.
On the same count and under the same terms, the figure for `O=C(Cc1noc(-c2ccc(F)c(F)c2)n1)N[C@H](Cc1ccccc1)C(=O)C(=O)NCc1nccs1` [Compound 516, (R)-3-(2-(5-(3,4-difluorophenyl)-1,2,4-oxadiazol-3-yl)acetylamino)-2-oxo-4-phenyl-N-(thiazole-2-ylmethyl)butyramide] is 0.033 ± 0.0019 µM; for `O=C(Cn1cc(-c2c(F)ccc(F)c2F)cn1)N[C@H](Cc1ccccc1)C(=O)C(=O)NCc1nccs1` [Compound 505] it is 0.239 ± 0.004 µM; for `O=C(NCc1ccccn1)C(=O)[C@@H](Cc1ccccc1)NC(=O)[C@@H]1[C@H]2CCC[C@H]2CN1C(=O)[C@@H](NC(=O)c1cnccn1)C1CCCCC1` [Compound 261] it is 0.8636 ± 0.0001 µM.
The same measure, in the same setting: the figure for `CN(OCc1ccccc1)C(=O)N[C@H](Cc1ccccc1)C(=O)C(=O)NCc1ccccn1` [Compound 58, (R)-3-(3-(benzyloxy)-3-methylureido)-2-oxo-4-phenyl-N-(pyridin-2-ylmethyl)butyramide] is 0.1009 ± 0.0001 µM; for `O=C(NCc1ccccn1)C(=O)[C@@H](Cc1ccccc1)NC(=O)[C@H]1C[C@@H]2CCCC[C@@H]2N1C(=O)C1CCC(F)(F)CC1` [Compound 265] it is 0.0156 ± 0.0001 µM; for `COc1ccc(CCCC(=O)N[C@H](C)C(=O)N[C@H](Cc2ccccc2)C(=O)C(=O)NCc2ccccn2)cc1` [Compound 63] it is 0.0196 ± 0.0003 µM.
